{
  "source": "paper PMC9091059",
  "about": "(Nature biotechnology, 2021)",
  "key": {"[1]": {"system": "GRABeCBmut (eCBmut) sensor", "experiment": "eCBmut fluorescence response to ligands in HEK293T cells", "type": "cell-based, human", "settings": "all concentrations tested"}, "wildtype CB1R": {"biological_target": "wildtype CB1R (Homo sapiens, UniProt P21554)", "sequence (P21554 whole entry)": "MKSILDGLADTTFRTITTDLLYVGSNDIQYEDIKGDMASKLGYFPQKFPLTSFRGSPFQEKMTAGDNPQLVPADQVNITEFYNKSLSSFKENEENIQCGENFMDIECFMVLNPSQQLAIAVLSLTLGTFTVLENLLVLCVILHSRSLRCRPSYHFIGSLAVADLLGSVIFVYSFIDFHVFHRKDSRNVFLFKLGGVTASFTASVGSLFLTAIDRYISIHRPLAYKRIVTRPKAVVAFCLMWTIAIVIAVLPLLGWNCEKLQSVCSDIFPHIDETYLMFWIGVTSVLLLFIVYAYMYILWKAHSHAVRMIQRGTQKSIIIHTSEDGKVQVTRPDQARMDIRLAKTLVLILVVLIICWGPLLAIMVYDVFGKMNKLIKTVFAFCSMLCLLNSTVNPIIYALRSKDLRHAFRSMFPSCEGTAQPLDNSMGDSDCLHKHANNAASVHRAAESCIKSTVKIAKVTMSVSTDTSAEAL", "experiment": "Gq-i Ca2+ imaging assay", "type": "cell-based", "settings": "HEK293T cells expressing CB1R"}, "eCB2.0 [2]": {"system": "eCB2.0", "experiment": "Gq-i Ca2+ imaging assay", "type": "cell-based, human", "settings": "HEK293T cells expressing eCB2.0"}, "human CB1R": {"biological_target": "human CB1R (Homo sapiens, UniProt P21554)", "sequence (P21554 whole entry)": "as above", "experiment": "BRET Gβγ sensor assay, cells expressing CB1R", "type": "cell-based", "settings": "20 μM 2-AG"}, "eCB2.0 [3]": {"system": "eCB2.0", "experiment": "BRET Gβγ sensor assay, cells expressing eCB2.0", "type": "cell-based, human", "settings": "20 μM 2-AG"}, "eCBmut": {"system": "eCBmut", "experiment": "BRET Gβγ sensor assay, cells expressing eCBmut", "type": "cell-based, human", "settings": "20 μM 2-AG"}, "[4]": {"system": "GRABeCBmut (eCBmut) sensor", "type": "cell-based, human", "settings": "cultured rat cortical neurons, even at 100 μM"}, "[5]": {"system": "spontaneous transient eCB2.0 signals in cultured neurons", "type": "cell-based, rat"}, "[6]": {"system": "evoked eCB release in dorsolateral striatum (DLS) slices", "design": "species or system mouse"}, "[7]": {"system": "eCB2.0 fluorescence in hippocampal slices", "experiment": "2-photon imaging of eCB2.0 in acute hippocampal CA1 slices", "design": "species or system mouse"}, "[8]": {"system": "stimulus-evoked eCB2.0 signal in cultured rat cortical neurons", "type": "cell-based", "settings": "20 electrical pulses, 68 min after application; MAGL (JZL184) or FAAH (URB597) inhibition"}},
  "note": "Read-outs that look alike come from different tables or passages of the source.",
  "data": [
    {"smiles": "CCCCC/C=C\\C/C=C\\C/C=C\\C/C=C\\CCCC(=O)OC(CO)CO", "note": "[2-AG, 2-arachidonoylglycerol]", "values": [
      {"measurement": "eCBmut fluorescence response", "setting": "[1]", "value": "no response"},
      {"measurement": "jRGECO1a Ca2+ response (G protein activation via Gαq-i)", "setting": "wildtype CB1R", "value": "increased jRGECO1a fluorescent response in a dose-dependent manner"},
      {"measurement": "jRGECO1a Ca2+ response (G protein activation via Gαq-i)", "setting": "eCB2.0 [2]", "value": "failed in inducing jRGECO1a response"},
      {"measurement": "BRET change (Gβγ activation)", "setting": "human CB1R", "value": "robust increase in BRET"},
      {"measurement": "BRET change (Gβγ activation)", "setting": "eCB2.0 [3]", "value": "no effect on BRET"},
      {"measurement": "BRET change (Gβγ activation)", "setting": "eCBmut", "value": "no effect on BRET"},
      {"measurement": "eCBmut fluorescence response", "setting": "[4]", "value": "neither 2-AG nor AEA elicited a response"}
    ]},
    {"smiles": "CCCCC/C=C\\C/C=C\\C/C=C\\C/C=C\\CCCC(=O)NCCO", "note": "[AEA, anandamide]", "values": [
      {"measurement": "eCBmut fluorescence response", "setting": "[1]", "value": "no response"}
    ]},
    {"smiles": "Cc1c(C(=O)NN2CCCCC2)nn(-c2ccc(Cl)cc2Cl)c1-c1ccc(I)cc1", "note": "[AM251]", "values": [
      {"measurement": "effect on spontaneous eCB2.0 transients", "setting": "[5]", "value": "no longer observed"},
      {"measurement": "effect on electrically evoked eCB2.0 signal", "setting": "[6]", "value": "blocked the response"},
      {"measurement": "effect on AEA-induced eCB2.0 fluorescence increase", "setting": "[7]", "value": "reversed"},
      {"measurement": "effect on electrically evoked eCB2.0 signal", "setting": "[7]", "value": "eliminated the signal induced by even 100 field stimuli"}
    ]},
    {"smiles": "O=C(Oc1ccc([N+](=O)[O-])cc1)N1CCC(C(O)(c2ccc3c(c2)OCO3)c2ccc3c(c2)OCO3)CC1", "note": "[JZL184]", "values": [
      {"measurement": "effect on decay time constant of evoked eCB2.0 signal", "setting": "[8]", "value": "significantly increased the decay time constant"}
    ]},
    {"smiles": "O=C(NN1CCCCC1)c1nn(-c2ccc(Cl)cc2Cl)c2c1CCCc1cc(Cl)ccc1-2", "note": "[NESS0327]", "values": [
      {"measurement": "effect on spontaneous eCB2.0 transients", "setting": "[5]; NESS0327 1 μM, TTX 1 μM", "value": "no longer observed"}
    ]},
    {"smiles": "NC(=O)c1cccc(-c2cccc(OC(=O)NC3CCCCC3)c2)c1", "note": "[URB597]", "values": [
      {"measurement": "effect on decay time constant of evoked eCB2.0 signal", "setting": "[8]", "value": "only a slight—albeit significant—effect on the decay time constant"}
    ]}
  ]
}
